{"source": "patent US11413278B2", "about": "“Compounds and methods for promoting stress resistance” (priority 2015, dated 2022)", "key": {"NRF2 [1]": {"test_system": "NRF2", "test": "qPCR analysis of NRF2-regulated genes", "assay_type": "cell-based, human", "details": "for fold induction at 10 µM: Homo sapiens", "in_short": "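Expression of HMOX1, NQO1, GCLC and GSTM1 measured by qPCR relative to B2M, PPIA and GAPDH. Cells were WI-38 fibroblasts exposed 24 hrs to 10 μM compound, with RNA and cDNA prepared via Cells-to-Ct. Where stated, cells were first transfected 36 hrs with FOXO3 or NRF2 siRNA at 10 nM.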"}, "NRF2 [2]": {"test_system": "NRF2", "test": "in vitro", "assay_type": "cell-based, human"}, "LC3A/B puncta": {"test_system": "LC3A/B puncta", "test": "Autophagy induction analysis (LC3A/B puncta immuno-staining)", "assay_type": "cell-based, human", "details": "for Exp. 2, normalized change of nuclei numbers (Less cells): 20X objective, lysosomal LAMP co-staining", "procedure": "Immuno-staining of LC3A/B was performed, following a standard protocol. Briefly, WI-38 cells were treated with small molecules for 24 hrs, and then processed and incubated with primary antibody (Cell Signaling, rabbit anti-LC3A/B, 1:100) overnight at 4° C. Next day, samples were processed and incubated with fluorophore-conjugated secondary antibody and further incubated with DAPI dye. Images were collected on the INCell Analyzer 2000 (Experiment 1: 10× objective; Experiment 2: 20× objective) and analyzed with the Developer Toolbox. For Experiment 2, lysosomal-associated membrane protein 2 (LAMP2) was also counter-stained to identify the LC3A/B puncta that colocalize with lysosome and the data were analyzed by the MetaXpress software (Molecular Devices, version 5.1). The intensity of total (Exp. 1) or LAMP2-colocalized LC3A/B puncta (Exp. 2) was normalized the total numbers nuclei in the fields.\nThese assays were performed, following the same procedures to analyze DNA-damage markers. WI-38 cells were incubated with small molecules for 24 hrs, and then processed and incubated with primary antibody (rabbit anti-LC3A/B, 1:100) overnight at 4 C. The next day, samples were processed and incubated with fluorophore-conjugated secondary antibody and further incubated with DAPI dye. Images were collected on an INCell Analyzer 2000 and analyzed with the Developer software. Total LC3A/B puncta intensity was normalized the total numbers of DAPI-positive nuclei."}, "C. elegans": {"test_system": "C. elegans", "test": "C. elegans lifespan assays (liquid and plate)", "assay_type": "in vivo, Caenorhabditis elegans", "details": "for ILS at 60 µM / ILS at 66 µM: Caenorhabditis elegans"}, "[3]": {"details": "Exp. 1, 10 μM, 10X objective, WI-38 cells"}}, "note": "Like-named read-outs stand apart in the source and are kept apart here."}
{"smiles": "NS(=O)(=O)c1ccc(NC(=O)c2ccc([N+](=O)[O-])o2)cc1", "note": "[Gr-1A]", "values": [{"measurement": "F = Potential NRF2 Activation", "setting": "NRF2 [1]; 2-point score", "value": 2}, {"measurement": "fold induction at 10 µM", "setting": "NRF2 [1]; 24 h, Assay 12(o), at 10 uM, qPCR, read-out: Induction of NRF2-regulated genes: GCLC normalized fold-change", "value": 1.48}, {"measurement": "fold induction at 10 µM", "setting": "NRF2 [1]; 24 h, Assay 12(o), at 10 uM, qPCR, read-out: Induction of NRF2-regulated genes: GSTM1 normalized fold-change", "value": 1.45}, {"measurement": "fold induction at 10 µM", "setting": "NRF2 [1]; rounded fold change, WI-38 cells, 10 μM, 24 hrs (RP29 for Gr-4D), read-out: Summary of effects on NRF2-regulated genes: GSTM1", "value": 1.45}, {"measurement": "fold induction at 10 µM", "setting": "NRF2 [1]; rounded fold change, WI-38 cells, 10 μM, 24 hrs (RP29 for Gr-4D), read-out: Summary of effects on NRF2-regulated genes: NQO1", "value": 1.79}, {"measurement": "fold induction at 10 µM", "setting": "NRF2 [1]; rounded fold change, WI-38 cells, 10 μM, 24 hrs, read-out: Summary of effects on NRF2-regulated genes: GCLC", "value": 1.61}, {"measurement": "fold induction at 10 µM", "setting": "NRF2 [1]; 10 μM, 24 hrs, WI-38, read-out: Expression of at least two NRF2 target genes", "value": "> 1.5"}, {"measurement": "fold induction at 10 µM", "setting": "NRF2 [1]; 10 μM, 24 hrs, WI-38 cells, qPCR, normalized to B2M, n = 4, read-out: GCLC expression, normalized fold change (NRF2-regulated gene)", "value": 1.61}, {"measurement": "fold induction at 10 µM", "setting": "NRF2 [1]; 10 μM, 24 hrs, WI-38 cells, qPCR, normalized to B2M, n = 4, read-out: GSTM1 expression, normalized fold change (NRF2-regulated gene)", "value": 1.45}, {"measurement": "fold induction at 10 µM", "setting": "NRF2 [1]; 10 μM, 24 hrs, WI-38 cells, qPCR, normalized to B2M, n = 4, read-out: NQO1 expression, normalized fold change (NRF2-regulated gene)", "value": 1.79}, {"measurement": "fold induction at 10 µM", "setting": "NRF2 [1]; WI-38 cells, 10 μM, 24 hrs, n=4, qPCR normalized by B2M, read-out: GCLC Normalized fold change", "value": 1.61}, {"measurement": "fold induction at 10 µM", "setting": "NRF2 [1]; WI-38 cells, 10 μM, 24 hrs, n=4, qPCR normalized by B2M, read-out: GSTM1 Normalized fold change", "value": 2.53}, {"measurement": "fold induction at 10 µM", "setting": "NRF2 [1]; WI-38 cells, 10 μM, 24 hrs, n=4, qPCR normalized by B2M, read-out: HMOX1 Normalized fold change", "value": 0.973}, {"measurement": "fold induction at 10 µM", "setting": "NRF2 [1]; WI-38 cells, 10 μM, 24 hrs, n=4, qPCR normalized by B2M, read-out: NQO1 Normalized fold change", "value": 1.79}, {"measurement": "F = Potential NRF2 Activation", "setting": "NRF2 [1]; summary score", "value": 0}, {"measurement": "Survival of NRF2 siRNA-transfected cells in the absence of H2O2", "setting": "NRF2 [2]", "value": "could reduce the survival"}, {"measurement": "NRF2-dependency for H2O2-resistance, at 10 uM - with H2O2, 2nd experiment", "setting": "NRF2 [2]; 10 uM, experiment 2 (2nd), with H2O2", "value": "2nd, partial."}, {"measurement": "NRF2-dependency for H2O2-resistance, 2nd experiment", "setting": "NRF2 [2]; 10 uM, with H2O2, NRF2 knockdown in WI-38 cells, YES = resistance reduced by at least 50%, partial = 25% to 50%", "value": "partial"}, {"measurement": "Assay 17: NRF2-dependency for H2O2-resistance", "setting": "NRF2 [2]; 10 uM, YES/NO", "value": "YES"}, {"measurement": "NRF2-dependency of H2O2-resistance (NRF2 siRNA knockdown)", "setting": "NRF2 [2]; at least 2 of 3 independent experiments", "value": "significantly attenuate"}, {"measurement": "viability of non-stressed cells, reduced by", "setting": "NRF2 [2]; human, 24 h, 10 uM", "value": "by 30%)"}, {"measurement": "J = NRF2-dependency for H2O2-resistance", "setting": "NRF2 [2]; score", "value": 1}, {"measurement": "J = NRF2-dependency for H2O2-resistance", "setting": "NRF2 [2]; summary score", "value": 1}, {"measurement": "Assay 15: Potential autophagy induction by LC3A/B puncta assays", "setting": "LC3A/B puncta; 10 uM & 20 uM, YES/NO", "value": "YES"}, {"measurement": "Exp. 1, induction of LC3A/B puncta (Up), total intensity normalized by total number of nuclei in the fields", "setting": "LC3A/B puncta; [3]", "value": "p < 0.001; Up, 1876%,"}, {"measurement": "Exp. 1, normalized change of nuclei numbers (Less cells)", "setting": "LC3A/B puncta; [3]", "value": "Less cells, 55%,"}, {"measurement": "Exp. 2, normalized change of nuclei numbers (Less cells)", "setting": "LC3A/B puncta; Exp. 2, 10 μM, WI-38 cells", "value": "Less cells, 66%,"}, {"measurement": "Exp. 2, normalized change of nuclei numbers (Less cells)", "setting": "LC3A/B puncta; Exp. 2, 20 μM, WI-38 cells", "value": "Less cells, 57%,"}, {"measurement": "H = Potential Autophagy Induction", "setting": "LC3A/B puncta; score", "value": 1}, {"measurement": "H = Potential Autophagy Induction", "setting": "LC3A/B puncta; summary score", "value": 1}, {"measurement": "ILS at 60 µM", "setting": "C. elegans; in liquid, wild type, with FuDR, 1.0 × 10^9 bacteria/ml, read-out: relative change of mean lifespan vs control, Trial 1", "value": -1.3, "unit": "%"}, {"measurement": "ILS at 60 µM", "setting": "C. elegans; in liquid, wild type, with FuDR, 2.5 × 10^9 bacteria/ml, read-out: relative change of mean lifespan vs control, Trial 2", "value": 0.2, "unit": "%"}, {"measurement": "ILS at 60 µM", "setting": "C. elegans; on plate, CF512 temperature-sensitive sterile animals, without FuDR, 2.0 × 10^10 bacteria/ml, read-out: relative change of mean lifespan vs control, Trial 3", "value": 14.2, "unit": "%"}, {"measurement": "ILS at 66 µM", "setting": "C. elegans; Assay 2(z), 1.0 × 10^9 bacteria/ml, wild type + FuDR (2012 July), read-out: Lifespan assay in liquid", "value": -1.3, "unit": "%"}, {"measurement": "ILS at 66 µM", "setting": "C. elegans; Assay 3(aa), 2.5 × 10^9 bacteria/ml, wild type + FuDR, read-out: Lifespan assay in liquid", "value": 0.2, "unit": "%"}, {"measurement": "ILS at 66 µM", "setting": "C. elegans; Assay 4(ab), 2.0 × 10^10 bacteria/ml, CF512 worms, no FuDR, read-out: Lifespan assay on plates", "value": 14.2, "unit": "%"}, {"measurement": "O = Life span- extending scores in worms", "setting": "C. elegans; score scale 0 to 2, 4 to 6 independent trials", "value": 0}, {"measurement": "M = Lifespan-extending scores in worms", "setting": "C. elegans; summary score", "value": 0}]}
